Experimental data: ChEMBL document CHEMBL1133517, “Design, radiosynthesis, and biodistribution of a new potent and selective ligand for in vivo imaging of the adenosine A(2A) receptor system using positron emission tomography” (J Med Chem, 2000)

Columns and labels:
Type in all cases: ADME, organism-based
[1] = species on record: Rattus norvegicus; assay: Biodistribution in rat thalamus after 15 min time interval; settings: in vivo, 0.25 h
[2] = species on record: Rattus norvegicus; assay: Biodistribution in rat thalamus after 30 min time interval; settings: in vivo, 0.5 h
[3] = species on record: Rattus norvegicus; assay: Biodistribution in rat thalamus after 5 min time interval; settings: in vivo
[4] = species on record: Rattus norvegicus; assay: Biodistribution in rat thalamus after 60 min time interval; settings: in vivo, 1 h
[5] = species on record: Rattus norvegicus; assay: Biodistribution in rat blood after 30 min time interval; settings: in vivo, 0.5 h
[6] = species on record: Rattus norvegicus; assay: Biodistribution in rat blood after 60 min time interval; settings: in vivo, 1 h
[7] = species on record: Rattus norvegicus; assay: Biodistribution in rat blood after 90 min time interval; settings: in vivo, 1.5 h
[8] = species on record: Rattus norvegicus; assay: Biodistribution in rat thalamus after 90 min time interval; settings: in vivo, 1.5 h
[9] = species on record: Rattus norvegicus; assay: Biodistribution in rat trachea after 15 min time interval; settings: in vivo, 0.25 h
[10] = species on record: Rattus norvegicus; assay: Biodistribution in rat trachea after 30 min time interval; settings: in vivo, 0.5 h
[11] = species on record: Rattus norvegicus; assay: Biodistribution in rat trachea after 5 min time interval; settings: in vivo
[12] = species on record: Rattus norvegicus; assay: Biodistribution in rat trachea after 60 min time interval; settings: in vivo, 1 h
[13] = species on record: Rattus norvegicus; assay: Biodistribution in rat hippocampus after 5 min time interval; settings: in vivo
[14] = species on record: Rattus norvegicus; assay: Biodistribution in rat hippocampus after 60 min time interval; settings: in vivo, 1 h
[15] = species on record: Rattus norvegicus; assay: Biodistribution in rat hippocampus after 90 min time interval; settings: in vivo, 1.5 h
[16] = species on record: Rattus norvegicus; assay: Biodistribution in rat hypothalamus after 15 min time interval; settings: in vivo, 0.25 h
[17] = species on record: Rattus norvegicus; assay: Biodistribution in rat hypothalamus after 30 min time interval; settings: in vivo, 0.5 h
[18] = species on record: Rattus norvegicus; assay: Biodistribution in rat hypothalamus after 5 min time interval; settings: in vivo
[19] = species on record: Rattus norvegicus; assay: Biodistribution in rat hypothalamus after 60 min time interval; settings: in vivo, 1 h
[20] = species on record: Rattus norvegicus; assay: Biodistribution in rat hypothalamus after 90 min time interval; settings: in vivo, 1.5 h
[21] = species on record: Rattus norvegicus; assay: Biodistribution in rat intestine after 15 min time interval; settings: in vivo, 0.25 h
[22] = species on record: Rattus norvegicus; assay: Biodistribution in rat intestine after 30 min time interval; settings: in vivo, 0.5 h
[23] = species on record: Rattus norvegicus; assay: Biodistribution in rat intestine after 60 min time interval; settings: in vivo, 1 h
[24] = species on record: Rattus norvegicus; assay: Biodistribution in rat intestine after 90 min time interval; settings: in vivo, 1.5 h
[25] = species on record: Rattus norvegicus; assay: Biodistribution in rat kidney after 15 min time interval; settings: in vivo, 0.25 h
[26] = species on record: Rattus norvegicus; assay: Biodistribution in rat kidney after 30 min time interval; settings: in vivo, 0.5 h
[27] = species on record: Rattus norvegicus; assay: Biodistribution in rat kidney after 5 min time interval; settings: in vivo
[28] = species on record: Rattus norvegicus; assay: Biodistribution in rat anti-CTX after 30 min time interval; settings: in vivo, 0.5 h
[29] = species on record: Rattus norvegicus; assay: Biodistribution in rat anti-CTX after 5 min time interval; settings: in vivo
[30] = species on record: Rattus norvegicus; assay: Biodistribution in rat anti-CTX after 60 min time interval; settings: in vivo, 1 h
[31] = species on record: Rattus norvegicus; assay: Biodistribution in rat anti-CTX after 90 min time interval; settings: in vivo, 1.5 h
[32] = species on record: Rattus norvegicus; assay: Biodistribution in rat plasma after 5 min time interval; settings: in vivo
[33] = species on record: Rattus norvegicus; assay: Biodistribution in rat plasma after 60 min time interval; settings: in vivo, 1 h
[34] = species on record: Rattus norvegicus; assay: Biodistribution in rat plasma after 90 min time interval; settings: in vivo, 1.5 h
[35] = species on record: Rattus norvegicus; assay: Biodistribution in rat pons after 30 min time interval; settings: in vivo, 0.5 h
[36] = species on record: Rattus norvegicus; assay: Biodistribution in rat pons after 5 min time interval; settings: in vivo
[37] = species on record: Rattus norvegicus; assay: Biodistribution in rat pons after 60 min time interval; settings: in vivo, 1 h
[38] = species on record: Rattus norvegicus; assay: Biodistribution in rat pons after 90 min time interval; settings: in vivo, 1.5 h
[39] = species on record: Rattus norvegicus; assay: Biodistribution in rat post-CTX after 15 min time interval; settings: in vivo, 0.25 h
[40] = species on record: Rattus norvegicus; assay: Biodistribution in rat post-CTX after 30 min time interval; settings: in vivo, 0.5 h
[41] = species on record: Rattus norvegicus; assay: Biodistribution in rat post-CTX after 5 min time interval; settings: in vivo
[42] = species on record: Rattus norvegicus; assay: Biodistribution in rat post-CTX after 60 min time interval; settings: in vivo, 1 h
[43] = species on record: Rattus norvegicus; assay: Biodistribution in rat post-CTX after 90 min time interval; settings: in vivo, 1.5 h
[44] = species on record: Rattus norvegicus; assay: Biodistribution in rat spleen after 15 min time interval; settings: in vivo, 0.25 h
[45] = species on record: Rattus norvegicus; assay: Biodistribution in rat spleen after 30 min time interval; settings: in vivo, 0.5 h
[46] = species on record: Rattus norvegicus; assay: Biodistribution in rat spleen after 5 min time interval; settings: in vivo
[47] = species on record: Rattus norvegicus; assay: Biodistribution in rat spleen after 60 min time interval; settings: in vivo, 1 h
[48] = species on record: Rattus norvegicus; assay: Biodistribution in rat spleen after 90 min time interval; settings: in vivo, 1.5 h
[49] = species on record: Rattus norvegicus; assay: Biodistribution in rat striatum after 30 min time interval; settings: in vivo, 0.5 h
[50] = species on record: Rattus norvegicus; assay: Biodistribution in rat striatum after 5 min time interval; settings: in vivo

## [11CH3]Oc1ccc(CCCn2ncc3c2nc(N)n2nc(-c4ccco4)nc32)cc1
[1]
  ID/g: 0.1%
[2]
  ID/g: 0.05%
[3]
  ID/g: 0.2%
[4]
  ID/g: 0.02%
[5]
  ID/g: 0.06%
[6]
  ID/g: 0.03%
[7]
  ID/g: 0.05%
[8]
  ID/g: 0.02%
[9]
  ID/g: 0.12%
[10]
  ID/g: 0.09%
[11]
  ID/g: 0.17%
[12]
  ID/g: 0.04%
[13]
  ID/g: 0.17%
[14]
  ID/g: 0.02%
[15]
  ID/g: 0.02%
[16]
  ID/g: 0.07%
[17]
  ID/g: 0.04%
[18]
  ID/g: 0.16%
[19]
  ID/g: 0.02%
[20]
  ID/g: 0.02%
[21]
  ID/g: 0.28%
[22]
  ID/g: 0.25%
[23]
  ID/g: 0.1%
[24]
  ID/g: 0.16%
[25]
  ID/g: 0.49%
[26]
  ID/g: 0.24%
[27]
  ID/g: 0.69%
[28]
  ID/g: 0.06%
[29]
  ID/g: 0.18%
[30]
  ID/g: 0.02%
[31]
  ID/g: 0.02%
[32]
  ID/g: 0.19%
[33]
  ID/g: 0.07%
[34]
  ID/g: 0.07%
[35]
  ID/g: 0.06%
[36]
  ID/g: 0.2%
[37]
  ID/g: 0.02%
[38]
  ID/g: 0.02%
[39]
  ID/g: 0.1%
[40]
  ID/g: 0.05%
[41]
  ID/g: 0.19%
[42]
  ID/g: 0.02%
[43]
  ID/g: 0.02%
[44]
  ID/g: 0.12%
[45]
  ID/g: 0.07%
[46]
  ID/g: 0.18%
[47]
  ID/g: 0.06%
[48]
  ID/g: 0.05%
[49]
  ID/g: 0.2%
[50]
  ID/g: 0.43%
